Experimental findings from ChEMBL document CHEMBL1201862, “PubChem BioAssay data set” (2004) are described below.

Structures are written as SMILES.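 Briefly, cells in 96-well plates were exposed to five compound concentrations for 48 h, and endpoints were estimated by linear interpolation. The concentration for 50% growth inhibition is given as GI50.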 Calls of active or inactive are those of the source. No stated cut-off is given here; in the data, active = GI50 up to about 1.1 µM and inactive = higher.

Holding throughout (assay): NCI anticancer screen, dose series, 48 h
For assay [1], the system named is A498.
The test system of assay [2] is A549.
The subject of assay [3] is COLO 205.
Assay [4] deals with DU-145.
For assay [5], the system named is HCC 2998.
Assay [6] deals with HCT-116.
The test system of assay [7] is HCT-15.
Assay [8] concerns HOP-92.
Assay [9] relates to Hs-578T.
For assay [10], the system named is MCF7.
The test system of assay [11] is OVCAR-5.
Assay [12] deals with OVCAR-8.
Assay [13] has as its system SF-295.
In assay [14] the test system is SK-MEL-28.
The test system of assay [15] is SK-MEL-2.
The test system of assay [16] is SK-MEL-5.
In assay [17] the test system is SK-OV-3.
Assay [18] relates to SNB-19.
Assay [19] relates to SNB-75.
Assay [20] relates to CCRF-CEM.

With `COC(=O)[C@@H]1CS(=O)(=O)C(C(C)C)N1C(C)=O` (some centres not stated), the GI50 in assay [1], in [2], in [3], in [4], in assay [5] and in assay [6] was > 100 µM (inactive) each time. Besides, the GI50 in [7] is above 100 µM; in assay [8], > 100 µM (inactive); in assay [9] it was > 100 µM (inactive); in assay [10] it was > 100 µM (inactive); in assay [11] it was > 100 µM (inactive); in [12], > 100 µM (inactive). The GI50 in [13], in [14], in [15], in assay [16], in assay [17] and in assay [18] was > 100 µM (inactive) each time. For the same compound, the GI50 in [19] was > 100 µM (inactive).
Turning to `CCSC1SC(c2ccccc2)(c2ccccc2)c2ccccc21` (configuration not stated), the GI50 in assay [1] is 22.5 µM (inactive); in [2], 46 µM (inactive); in [20], 54 µM (inactive); in assay [3], 35 µM (inactive); in [4] it was 64.7 µM (inactive); in assay [5], 45.1 µM (inactive). Also, the GI50 in assay [6] is 30.8 µM (inactive); in [7], 42.1 µM; in [8] it was 30.8 µM (inactive); in assay [9], 54.3 µM (inactive); in [10], 33.7 µM (inactive); in assay [11], 45.4 µM (inactive). The GI50 in assay [12] was 64.7 µM (inactive); in [13], 70 µM (inactive); in assay [14] it was 79.8 µM (inactive); in assay [16] it was 26.4 µM (inactive); in assay [17], > 100 µM (inactive); in assay [18], > 100 µM (inactive). In assay [19], the GI50 is 87.9 µM (inactive).
Consider `COc1ccc(/C=N/c2ccc(-c3nc4ccccc4[nH]3)cc2)cc1OC`, for which the GI50 in assay [1], in assay [2], in assay [20], in assay [3], in assay [4] and in assay [6] was > 100 µM (inactive) in each case. Besides, the GI50 in [7] was above 100 µM; in assay [8] it was 47 µM (inactive); in assay [9] it was > 100 µM (inactive); in assay [10], 25.9 µM (inactive); in assay [11] it was > 100 µM (inactive); in assay [12], 39.6 µM (inactive). Further, the GI50 in assay [13], in assay [14], in assay [15], in [16], in assay [17] and in [18] was > 100 µM (inactive) throughout. Moreover, in assay [19], the GI50 was 22.3 µM (inactive).
For the compound `C[C@H](CCC(=O)O)[C@H]1CC[C@H]2[C@@H]3C(=O)C[C@@H]4C[C@H](O)CC[C@]4(C)[C@H]3C[C@H](O)[C@]12C`, the GI50 in assay [1], in assay [2], in assay [20], in assay [3], in assay [4] and in assay [5] was > 100 µM (inactive) throughout. For the same compound, the GI50 is > 100 µM (inactive) in [6]; above 100 µM in assay [7]; > 100 µM (inactive) in [8]; < 0.01 µM (active) in [9]; > 100 µM (inactive) in [10]; > 100 µM (inactive) in assay [11]. Also, the GI50 in assay [12] is > 100 µM (inactive); in assay [14] it was > 100 µM (inactive); in assay [15] it was > 100 µM (inactive); in [18], > 100 µM (inactive); in assay [19], 85.5 µM (inactive).
For `Cc1ccc(C)c2c1C/C(=C\c1ccccc1C(=O)O)C2=O`, the GI50 in [1] was > 100 µM (inactive); in [2], 90.8 µM (inactive); in [20], 55.6 µM (inactive); in assay [3], > 100 µM (inactive); in [4], 97.3 µM (inactive); in assay [5], > 100 µM (inactive). Besides, the GI50 in assay [6] is > 100 µM (inactive); in [7], 77.4 µM; in [8], > 100 µM (inactive); in [9] it was > 100 µM (inactive); in assay [10], > 100 µM (inactive); in [11] it was > 100 µM (inactive). Further, the GI50 in [12] is > 100 µM (inactive); in [13], > 100 µM (inactive); in assay [14], > 100 µM (inactive); in assay [16], 42.7 µM (inactive); in [18], 81.3 µM (inactive); in assay [19] it was > 100 µM (inactive).
With `CO[C@H]1C[C@H](O[C@H]2CC[C@]3(C=O)[C@H]4CC[C@]5(C)[C@@H](C6=CC(=O)OC6)CC[C@]5(O)[C@@H]4CC[C@]3(O)C2)O[C@H](C)[C@H]1O` [CYMARIN], the GI50 in assay [1] was 0.294 µM (active); in assay [2], 0.0805 µM (active); in [3], 0.618 µM (active); in assay [4], 0.115 µM (active); in assay [5], 2.08 µM (inactive); in [6] it was 0.163 µM (active). Besides, the GI50 is 0.192 µM in assay [7]; 0.341 µM (active) in [8]; 0.525 µM (active) in assay [9]; 0.463 µM (active) in assay [10]; 0.478 µM (active) in [11]; 0.307 µM (active) in assay [12]. Moreover, the GI50 in assay [13] was 0.133 µM (active); in assay [14], 0.845 µM (active); in assay [15], 0.397 µM (active); in assay [16], 0.0993 µM (active); in assay [17], 0.114 µM (active); in assay [18], 0.713 µM (active). Also, the GI50 in assay [19] is 0.4 µM (active).
In the case of `FC(F)(F)c1cccc(-c2nc3ccccc3c3c2[C@@]2(N4CCCC4)CCCC[C@@H]32)c1`, the GI50 in [1] is 31.2 µM (inactive); in assay [2] it was 31.7 µM (inactive); in assay [20], 29.6 µM (inactive); in assay [3] it was 15.5 µM (inactive); in assay [4], 51.5 µM (inactive); in assay [6], 35.6 µM (inactive). Also, the GI50 in assay [8] was 13.2 µM (inactive); in [9], 43.6 µM (inactive); in [10], 20 µM (inactive); in assay [11], 34.4 µM (inactive); in assay [13], 26.2 µM (inactive); in assay [15], 17.8 µM (inactive). For the same compound, the GI50 in assay [16] was 15.8 µM (inactive); in assay [17] it was 36.9 µM (inactive); in [18], 50.9 µM (inactive); in assay [19] it was 30.1 µM (inactive).
`OC1C=C2C3CN(Cc4cc5c(cc43)OCO5)[C@H]2C[C@@H]1O` (some centres not stated): the GI50 in [1] is 6.87 µM (inactive); in [2], 3.74 µM (inactive); in assay [20], 2.34 µM (inactive); in [3], 3.78 µM (inactive); in assay [4], 2.64 µM (inactive); in assay [6], 3.3 µM (inactive). Also, the GI50 in [7] was 4.33 µM; in [8] it was 5.31 µM (inactive); in assay [9] it was 26.3 µM (inactive); in [10], 2.96 µM (inactive); in assay [11], 8.39 µM (inactive); in assay [12], 5.04 µM (inactive). The GI50 in assay [13] was 7.38 µM (inactive); in assay [14], 11.5 µM (inactive); in assay [15], 3.2 µM (inactive); in assay [16], 3.32 µM (inactive); in assay [17], 3.82 µM (inactive); in [18], 4.62 µM (inactive). Also, in assay [19], the GI50 is 0.794 µM (active).
As for `CC1=NN(c2cccc(S(=O)(=O)O)c2)C2(C1)SCC(=O)N2c1nc2ccccc2s1` (configuration not stated), the GI50 in [1], in assay [2], in assay [3], in assay [4], in [5] and in assay [6] was > 100 µM (inactive) in each case. In addition, the GI50 in assay [7] is above 100 µM; in assay [8], > 100 µM (inactive); in assay [9], > 100 µM (inactive); in assay [10], > 100 µM (inactive); in [11], > 100 µM (inactive); in [12] it was > 100 µM (inactive). The GI50 in [13], in assay [14], in [15], in [16], in [17] and in assay [18] was > 100 µM (inactive) in each case. Further, the GI50 in assay [19] is > 100 µM (inactive).
Turning to `C1=C(c2ccccc2)C(N2CCOCC2)Oc2ccccc21` (configuration not stated), the GI50 is 25.5 µM (inactive) in [1]; > 100 µM (inactive) in [2]; > 100 µM (inactive) in assay [20]; > 100 µM (inactive) in [3]; > 100 µM (inactive) in assay [4]; > 100 µM (inactive) in assay [5]. The GI50 in assay [6] is > 100 µM (inactive); in assay [7], above 100 µM; in assay [8], > 100 µM (inactive); in assay [9], > 100 µM (inactive); in assay [10], > 100 µM (inactive); in [11], > 100 µM (inactive). Besides, the GI50 in assay [12], in assay [13], in [14], in assay [16], in assay [17] and in assay [18] was > 100 µM (inactive) each time. Besides, the GI50 in assay [19] is 32.5 µM (inactive).
For the compound `COC(=O)/C(=C\c1cn(C(C)=O)c2ccccc12)P(=O)(OC)OC`, the GI50 in assay [1] was 17.3 µM (inactive); in assay [2] it was 16.4 µM (inactive); in assay [20], 14.6 µM (inactive); in [3], 16.8 µM (inactive); in assay [4], 13.4 µM (inactive); in assay [5], 16.8 µM (inactive). Also, the GI50 was 13.9 µM (inactive) in assay [6]; 14.5 µM in assay [7]; 16.6 µM (inactive) in [8]; 27 µM (inactive) in [9]; 13.6 µM (inactive) in assay [10]; 22.5 µM (inactive) in assay [12]. Also, the GI50 is 14.9 µM (inactive) in [13]; 24.1 µM (inactive) in [14]; 13.4 µM (inactive) in assay [16]; 19 µM (inactive) in [17]; 18.1 µM (inactive) in [18]; 12 µM (inactive) in [19].
